Test results published in ChEMBL document CHEMBL1135848, “Novel substituted 4-aminomethylpiperidines as potent and selective human beta3-agonists. Part 2: arylethanolaminomethylpiperidines” (Bioorg Med Chem Lett, 2002).

Assays:
[1] = biological target: T1, Beta-2 adrenergic receptor (Homo sapiens, UniProt P07550); assay: Beta-2 adrenergic receptor agonist activity as increased cAMP levels in CHO cells expressing human Beta-2-adrenoceptor; type: functional, cell-based
[2] = biological target: T2, Beta-3 adrenergic receptor (Homo sapiens, UniProt P13945); assay: Human Beta-3 adrenergic receptor intrinsic activity (IA) as maximal response relative to isoproterenol at […]; type: functional
Target sequence in this assay (P13945 whole entry, looked up): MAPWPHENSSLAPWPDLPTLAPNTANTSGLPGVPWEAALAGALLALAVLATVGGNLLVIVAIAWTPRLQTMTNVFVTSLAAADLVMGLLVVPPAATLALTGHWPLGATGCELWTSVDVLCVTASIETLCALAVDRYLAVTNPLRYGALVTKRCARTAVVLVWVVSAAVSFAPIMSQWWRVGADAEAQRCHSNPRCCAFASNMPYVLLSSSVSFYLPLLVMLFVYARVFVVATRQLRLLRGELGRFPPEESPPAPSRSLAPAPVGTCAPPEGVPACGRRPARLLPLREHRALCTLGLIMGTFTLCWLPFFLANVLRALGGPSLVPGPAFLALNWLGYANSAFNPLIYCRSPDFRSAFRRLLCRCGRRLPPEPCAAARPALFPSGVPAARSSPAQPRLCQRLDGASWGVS

[3] = biological target: T3, Beta-1 adrenergic receptor (Homo sapiens, UniProt P08588); assay: Beta-1 adrenergic receptor agonist activity as increased cAMP levels in CHO cells expressing human Beta-1-adrenoceptor; type: functional, cell-based
Target sequence in this assay (P08588 whole entry): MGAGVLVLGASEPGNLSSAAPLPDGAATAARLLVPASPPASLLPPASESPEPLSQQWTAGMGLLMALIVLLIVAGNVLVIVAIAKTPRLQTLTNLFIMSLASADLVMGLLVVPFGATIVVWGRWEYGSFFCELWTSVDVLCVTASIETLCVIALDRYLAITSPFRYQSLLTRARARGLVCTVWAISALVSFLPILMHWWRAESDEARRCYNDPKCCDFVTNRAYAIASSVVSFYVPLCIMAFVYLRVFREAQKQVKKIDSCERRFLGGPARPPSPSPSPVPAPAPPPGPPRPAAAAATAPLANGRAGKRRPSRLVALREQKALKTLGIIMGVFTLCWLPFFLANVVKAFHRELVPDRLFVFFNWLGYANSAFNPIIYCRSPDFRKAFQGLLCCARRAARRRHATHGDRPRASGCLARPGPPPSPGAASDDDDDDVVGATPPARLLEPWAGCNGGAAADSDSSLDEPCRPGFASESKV

[4] = biological target: T2, Beta-3 adrenergic receptor; assay: Beta-3 adrenergic receptor agonist activity was determined by a measurement of increased cAMP levels in CHO cells expressing human Beta-3-adrenoceptor; IA is Inactive; type: functional, cell-based
Target sequence in this assay (P13945 whole entry): as the sequence (P13945 whole entry, looked up) above

[5] = biological target: T2, Beta-3 adrenergic receptor; assay: Beta-3 adrenergic receptor agonist activity as increased cAMP levels in CHO cells expressing human Beta-3-adrenoceptor; type: functional, cell-based
Target sequence in this assay (P13945 whole entry): as the sequence (P13945 whole entry, looked up) above

[6] = biological target: T1, Beta-2 adrenergic receptor; assay: Beta-2 adrenergic receptor agonist activity was determined by a measurement of increased cAMP levels in CHO cells expressing human Beta-2 adrenergic receptor; type: functional, cell-based
[7] = biological target: T1, Beta-2 adrenergic receptor; assay: Binding affinity of compound against Beta-2 adrenergic receptor was determined
[8] = biological target: T3, Beta-1 adrenergic receptor; assay: (§1) Binding affinity of compound against Beta-1 adrenergic receptor was determined; type: functional
Target sequence in this assay (P08588 whole entry): as the sequence (P08588 whole entry) above

[9] = biological target: T2, Beta-3 adrenergic receptor; assay: Evaluated in vivo using transgenic mice containing the human Beta-3-Adrenoceptor and increase in themogenesis was determined; type: functional, organism-based; conditions: Mus musculus
Target sequence in this assay (P13945 whole entry, looked up): as the sequence (P13945 whole entry, looked up) above

[10] = biological target: T3, Beta-1 adrenergic receptor; assay: as §1
Target sequence in this assay (P08588 whole entry): as the sequence (P08588 whole entry) above

[11] = biological target: T3, Beta-1 adrenergic receptor; assay: Human Beta-1 adrenergic receptor determined as the maximal response divided by the maximal response of isoproterenol at […].; type: functional
Target sequence in this assay (P08588 whole entry, looked up): as the sequence (P08588 whole entry) above

T1 sequence (P07550 whole entry): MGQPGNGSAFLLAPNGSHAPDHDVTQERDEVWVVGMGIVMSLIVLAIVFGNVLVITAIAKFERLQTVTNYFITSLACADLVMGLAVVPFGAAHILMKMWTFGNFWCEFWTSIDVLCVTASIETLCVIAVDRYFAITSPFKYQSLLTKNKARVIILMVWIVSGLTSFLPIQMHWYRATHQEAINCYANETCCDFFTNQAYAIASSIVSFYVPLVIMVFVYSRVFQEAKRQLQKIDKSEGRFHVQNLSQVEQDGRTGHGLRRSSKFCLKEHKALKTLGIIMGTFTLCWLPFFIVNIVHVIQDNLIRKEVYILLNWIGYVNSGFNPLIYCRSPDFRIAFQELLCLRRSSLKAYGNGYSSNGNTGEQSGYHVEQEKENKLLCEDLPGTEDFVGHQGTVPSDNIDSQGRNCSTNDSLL

SMILES | EC50 [1] | Intrinsic activity [2] | EC50 [3] | EC50 [5] | further results
CC(C)C[C@H](NC(=O)c1ccc(N2CCC(CNC[C@H](O)c3ccc(O)c(NS(C)(=O)=O)c3)CC2)cc1)C(=O)O | 1000 nM | 1 | 1860 nM |  | 
CCCCCCCCNC(=O)Nc1ccc(S(=O)(=O)N2CCC(CNC[C@H](O)c3ccc4[nH]ccc4c3)CC2)cc1 |  |  |  |  | EC50 [4]: Not Active
CS(=O)(=O)Nc1cc([C@@H](O)CNCC2CCN(S(=O)(=O)c3ccc(NC(=O)N[C@@H](Cc4ccccc4)C(=O)O)cc3)CC2)ccc1O | 20 nM | 1.2 | 520 nM | 31 nM | 
CS(=O)(=O)Nc1cc([C@@H](O)CNCC2CCN(S(=O)(=O)c3ccc(NC(=O)NCc4cc(F)ccc4F)cc3)CC2)ccc1O |  | 0.93 | 3160 nM | 5 nM | EC50 [6]: 30 nM
CS(=O)(=O)Nc1cc([C@@H](O)CNCC2CCN(S(=O)(=O)c3ccc(-n4ccc5c(C(=O)O)cccc54)cc3)CC2)ccc1O | 60 nM | 1 | 50 nM |  | 
CCCCCCCCC(=O)Nc1ccc(S(=O)(=O)N2CCC(CNC[C@H](O)c3ccc(O)c(NS(C)(=O)=O)c3)CC2)cc1 | 30 nM | 1 | 730 nM | 6 nM | Ki [7]: 140 nM; Ki [8]: 6600 nM; Increase [9]: 10%
CS(=O)(=O)Nc1cc([C@@H](O)CNCC2CCN(S(=O)(=O)c3ccc(-n4cc(CC(=O)O)c5ccccc54)cc3)CC2)ccc1O | 30 nM | 0.96 | 30 nM |  | Ki [10]: 240 nM; Ki [7]: 180 nM
CC(C)N(Cc1cc(F)ccc1F)C(=O)Nc1ccc(S(=O)(=O)N2CCC(CNC[C@H](O)c3ccc(O)c(NS(C)(=O)=O)c3)CC2)cc1 | 12 nM | 0.93 | 6300 nM | 27 nM | 
CCCCCCCCNC(=O)Nc1ccc(S(=O)(=O)N2CCC(CNC[C@H](O)c3cc(NS(C)(=O)=O)c4[nH]ccc4c3)CC2)cc1 |  |  |  |  | EC50 [4]: Not Active
CS(=O)(=O)Nc1cc([C@@H](O)CNCC2CCN(c3ccc(C(=O)N[C@@H](Cc4ccccc4)C(=O)O)cc3)CC2)ccc1O | 20000 nM | 1.2 | 520 nM | 31 nM | Intrinsic activity [11]: 0.6
CS(=O)(=O)Nc1cc([C@@H](O)CNCC2CCN(c3ccc(C(=O)N[C@@H](CC(=O)O)C(=O)O)cc3)CC2)ccc1O | 5 nM | 0.95 | 580 nM |  | 
CS(=O)(=O)Nc1cc([C@@H](O)CNCC2CCN(S(=O)(=O)c3ccc(-n4cc(C(=O)O)cn4)cc3)CC2)ccc1O | 10 nM | 0.93 | 1000 nM |  | 
